Experiment: Sensory evaluation of saltiness enhancing effect in aqueous salt solution (Experiments 2 and 3); also: key: A test sample for which the majority of the expert panelists evaluated as having a stronger saltiness than the control sample was determined as having a saltiness enhancing effect (Good); a sample for which they did not so was determined as having no saltiness enhancing effect (Bad); *2: Undetermined whether saltiness was enhanced or not due to strong bitterness
Type: in vivo, human
Method: The preparation of 3″-α-GN prepared in Experiment 1, Sunphenon EGCg-OP (from Taiyo Kagaku Co., Ltd., epigallocatechin gallate (EGCg), 95.3% pure), naringin (from Sichuan Xinhua Health Biotechnology Co., Ltd., 98.2% pure) or Hayashibara Hesperidin S (from Hayashibara Co., Ltd., monoglucosyl hesperidin, 82.1% pure), and salt (from The Salt Industry Center of Japan, the purity of sodium chloride was 99% or higher) were dissolved in pure water to give concentrations as shown in Table 1 below for preparing aqueous solutions of a control sample and test samples 1-1 to 1-5. Then, 9 panelists competent in food sensory evaluation who had passed the five-taste test (hereinafter referred to as “expert panelists”) conducted sensory evaluation tests on the test samples. Specifically, each of the expert panelists held a room-temperature control sample and a room-temperature test sample in her/his mouth and evaluated whether the saltiness of the test sample was weaker, similar, or stronger than that of the control sample, and recorded the overall taste.
Control samples 2 and 3 and test samples 9 and 10 were prepared as in Experiment 2, except that the concentrations of 3″-α-GN and salt were changed as shown in Table 2 below. Sensory evaluation tests were then conducted as in Experiment 2 to evaluate the intensity of saltiness of the test samples including 3″-α-GN as compared with the control samples of the same salt concentrations.

[1] = 5 ppm in water, salt 0.5 mass % (test samples 3, 6, 7)

Compound: monoglucosyl hesperidin [reference compound]
- Saltiness enhancing effect (4 ppm in water, salt 0.5 mass % (test sample 8)): Bad

Compound: C[C@@H]1O[C@@H](O[C@H]2[C@H](Oc3cc(O)c4c(c3)O[C@H](c3ccc(O)cc3)CC4=O)O[C@H](CO)[C@@H](O)[C@@H]2O)[C@H](O)[C@H](O)[C@H]1O [Naringin, naringin, reference compound]
- Saltiness enhancing effect [1]: Bad

Compound: O=C(O[C@@H]1Cc2c(O)cc(O)cc2O[C@@H]1c1cc(O)c(O)c(O)c1)c1cc(O)c(O)c(O)c1 [EGCg, epigallocatechin gallate, reference compound]
- Saltiness enhancing effect [1]: Bad

Compound: CC1O[C@@H](OC2C(O[C@H]3OC(CO)[C@@H](O)C(O)C3O)[C@H](O)C(CO)O[C@H]2Oc2cc(O)c3c(c2)OC(c2ccc(O)cc2)CC3=O)C(O)C(O)[C@H]1O (stereo partly drawn) [3″-α-GN, 3″-α-monoglucosyl naringin]
- Saltiness enhancing effect (0.1 ppm in water, salt 0.5 mass %, G/S 0.02×10^−3 (test sample 1 vs control sample 1)): Good
- Saltiness enhancing effect (1 ppm in water, salt 0.5 mass %, G/S 0.2×10^−3 (test sample 2)): Good
- Saltiness enhancing effect (1 ppm in water, salt 1 mass %, G/S 0.1×10^−3 (test sample 9 vs control sample 2)): Good
- Saltiness enhancing effect (1 ppm in water, salt 2 mass %, G/S 0.05×10^−3 (test sample 10 vs control sample 3)): Good
- Saltiness enhancing effect [1]: Good
- Saltiness enhancing effect (10 ppm in water, salt 0.5 mass %, G/S 2.0×10^−3 (test sample 4)): Good
- Saltiness enhancing effect (40 ppm in water, salt 0.5 mass %, G/S 8.0×10^−3 (test sample 5)): *2

— patent US20250000128A1, “SALTINESS ENHANCING COMPOSITION, AND COMPOSITION FOR ORAL USE AND METHOD OF ENHANCING SALTINESS THEREOF” (Nagase Viita Co., Ltd., priority 2021, published 2025)
